Test results: patent publication US20200131558A1, “PAPER-BASED ASSAY FOR ANTIMICROBIAL RESISTANCE” (Colorado State University Research Foundation, priority 2017, published 2020)
Values belong to the molecule of their own block, whether it stands above or below them.

Legend:
[1] = format: physicochemical
β-lactamase = details: on paper, ~22° C., 1 U/mL β-lactamase, Lineweaver-Burk plot
Procedure: Nitrocefin [VWR International], a chromogenic cephalosporin, was used for detection of β-lactamase because of the distinct color change from yellow to red in the presence of the enzyme, making it a user-friendly platform. […] Aliquots of 9.68 mM nitrocefin was frozen at −20° C. in amber microcentrifuge tubes [VWR International]. These tubes were used to minimize degradation from UV exposure. Aliquots were taken out and allowed to thaw and warm to room temperature. Nitrocefin was further diluted with pH 7.4 phosphate buffered saline (PBS) [1.37 M NaCl, 0.027 M of KCl, 0.1 M Na2HPO4, and 0.018 M KH2PO4] to a concentration of 0.5 mM for each experiment (except for nitrocefin concentration optimization where 0.5 mM was selected). During pH optimization experiments, nitrocefin was diluted in pH buffers ranging from pH 6 to pH 9. Recombinant β-lactamase was purchased at a concentration of 1,500 U/mg [Abcam] and was initially dissolved in dH2O and aliquoted and frozen. […]
In order to quantify the concentration of nitrocefin that was hydrolyzed every minute, a calibration curve was generated by quantifying the red product after the reaction had completed, and plotting green light intensity vs. product concentration. […] The calculated Vmax and Km values were carried out in the Michaelis-Menten equation to obtain a theoretical kinetic curve to compare to data points.

[2] = test system: C. violaceum's β-lactamase; assay: Paper-based test on intact bacterial isolates; format: cell-based, Chromobacterium violaceum; details: intact bacteria, 0.5 mM nitrocefin, 2 hr
Procedure: Bacterial isolates were obtained from grab samples in the field, except for influent. Field samples include influent, effluent, surface water from a river and sewage samples from city sewers. All samples were plated by pipetting 50-100 μL on various clinical agars [CHROMagar™ Orientation, CHROMagar™ ESBL, and CHROMagar™ KPC]. Bacterial isolates were purified by selecting a single colony with an inoculating loop and spreading the colony on the same kind of agar the colony was selected from, or was spread onto a MacConkey agar plate [Difco]. To remove potential inhibitors before any testing, they were further subcultured onto non selective agar [Tryptic Soy Agar, Thermo Scientific™ Remel™] and then grown in a nutrient broth [Tryptic Soy Broth, Thermo Scientific™ Remel™, Soybean Casein Digest] at 37° C. and 2% CO2. After replenishing the nutrient broth, all bacteria isolates were grown using a shaker for 12-18 hr depending on bacteria growth rate. They were also re-plated on ESBL plates to confirm resistance mechanisms. The isolates were given to the tester blind for accurate, unbiased results. Bacteria were not lysed before reacting 20 μL of bacteria solution with 20 μL of 0.5 mM nitrocefin. Images were obtained after 2 hr of reaction.

[3] = test system: Chromobacterium violaceum; assay: Antibiotic susceptibility testing (MIC, VITEK 2 microdilution); format: cell-based; details: C. violaceum isolate from influent of urban sewage water
Procedure: To determine antibiotic susceptibility of Chromobacterium violaceum and the 32 E. coli isolates, each isolate was subjected to antibiotic susceptibility testing [VITEK 2™ Biomerieux, USA] using microdilution and photometric determination of growth at the Colorado State University Veterinary Diagnostic Laboratory located in Fort Collins, Colo., US. […] The antibiotics that were tested against C. violaceum included amikacin, amoxicillin-clavulanate, ampicillin, cefazolin, cefpodoxime, ceftazidime, cephalothin, imipenem, ticarcillin, and ticarcillin-clavulanate. Antibiotics tested against each E. coli isolate included amoxicillin, ampicillin, cefalexin, cefovecin, cefpodoxime, ceftiofur, piperacillin, ceftazidime, cefotaxime, and imipenem.

[4] = test system: Chromobacterium violaceum; assay: Growth on ampicillin-containing agar plate; format: cell-based; details: C. violaceum isolate

Compound: O=C(Cc1cccs1)N[C@@H]1C(=O)N2C(C(=O)O)=C(/C=C/c3ccc([N+](=O)[O-])cc3[N+](=O)[O-])CS[C@H]12 [nitrocefin]
solubility in water [1]: insoluble in water
Km (β-lactamase): 293 ± 13 µM
Vmax (β-lactamase): 0.0285 ± 0.0012 mM/min
reaction with the isolate's β-lactamase (color change) [2]: did not react

Compound: CC1(C)S[C@@H]2[C@H](NC(=O)[C@H](N)c3ccc(O)cc3)C(=O)N2[C@H]1C(=O)O [amoxicillin]
resistance/susceptibility of isolate (MIC interpreted per CLSI) [3]: susceptible

Compound: CC1(C)S[C@@H]2[C@H](NC(=O)[C@H](N)c3ccccc3)C(=O)N2[C@H]1C(=O)O [ampicillin]
growth on ampicillin-containing agar plate [4]: did not grow

The next lines start with the values.

resistance/susceptibility of isolate (MIC interpreted per CLSI) [3]: resistant
Compound: CC(=O)OCC1=C(C(=O)O)N2C(=O)[C@@H](NC(=O)Cc3cccs3)[C@H]2SC1 [cephalothin]

resistance/susceptibility of isolate (MIC interpreted per CLSI) [3]: resistant
Compound: Cc1nnc(SCC2=C(C(=O)O)N3C(=O)[C@@H](NC(=O)Cn4cnnn4)[C@H]3SC2)s1 [cefazolin]

resistance/susceptibility of isolate (MIC interpreted per CLSI) [3]: susceptible
Compound: CC1(C)S[C@@H]2[C@H](NC(=O)[C@H](C(=O)O)c3ccsc3)C(=O)N2[C@H]1C(=O)O [ticarcillin]
